# BindingDB's records for doi:10.1021/jm0600390 (Mcgill University Health Center/Royal Victoria Hospital, 2006)
# Test: Inhibition of serum-stimulated proliferation of mouse ERBB2 transfected NIH3T3 cell line after 24 hrs
row,SMILES,IC50
1,CN(C(=O)N(CCCl)N=O)c1ccc2ncnc(Nc3cccc(Cl)c3)c2c1 [1-(2-chloroethyl)-1-nitroso-3-methyl-3-{[4-(3-chloro-phenyl)amino]quinazolin-6-yl}urea],680 nM
2,CN(C(=O)N(CCCl)N=O)c1ccc2ncnc(Nc3cccc(Br)c3)c2c1 [1-(2-chloroethyl)-1-nitroso-3-methyl-3-{[4-(3-bromophenyl)amino]quinazolin-6-yl}urea],3060 nM
3,Cc1cccc(Nc2ncnc3ccc(NC(=O)N(CCCl)N=O)cc23)c1 [1-(2-Chloroethyl)-1-nitroso-3-{[4-(3-methylphenyl)amino]quinazolin-6-yl}urea],12200 nM
4,Cc1cccc(Nc2ncnc3ccc(N(C)C(=O)N(CCCl)N=O)cc23)c1 [1-(2-chloroethyl)-1-nitroso-3-methyl-3-{[4-(3-methylphenyl)amino]quinazolin-6-yl}urea],6880 nM
5,O=NN(CCCl)C(=O)Nc1ccc2ncnc(Nc3cccc(Cl)c3)c2c1 [1-(2-Chloroethyl)-1-nitroso-3-{[4-(3-chlorophenyl)amino]quinazolin-6-yl}urea],5400 nM
6,Nc1ccc2ncnc(Nc3cccc(Br)c3)c2c1,670 nM
7,Nc1ccc2ncnc(Nc3cccc(Cl)c3)c2c1,3290 nM

# More lines, now with the values ahead:
row,IC50,SMILES
1,1350 nM,O=C(NCCCl)Nc1ccc2ncnc(Nc3cccc(Cl)c3)c2c1 [1-(2-chloroethyl)-3-{[4-(3-chlorophenyl)amino]quinazolin-6-yl}urea]
2,2070 nM,CNc1ccc2ncnc(Nc3cccc(C)c3)c2c1 [4-[(3-methylphenyl)amino]-6-(methylamino)quinazoline]
3,1150 nM,O=NN(CCCl)C(=O)Nc1ccc2ncnc(Nc3cccc(Br)c3)c2c1 [1-(2-chloroethyl)-1-nitroso-3-{[4-(3-bromophenyl)amino]quinazolin-6-yl}urea]
4,2100 nM,Cc1cccc(Nc2ncnc3ccc(NC(=O)NCCCl)cc23)c1 [1-(2-chloroethyl)-3-{[4-(3-methylphenyl)amino]quinazolin-6-yl}urea]
5,170 nM,"CNc1ccc2ncnc(Nc3cccc(Br)c3)c2c1 [4-N-(3-bromophenyl)-6-N-methylquinazoline-4,6-diamine]"
6,6390 nM,"Cc1cccc(Nc2ncnc3ccc(N)cc23)c1 [N4-(3-methylphenyl)-4,6-quinazolinediamine]"
7,1770 nM,O=C(NCCCl)Nc1ccc2ncnc(Nc3cccc(Br)c3)c2c1 [1-(2-chloroethyl)-3-{[4-(3-bromophenyl)amino]quinazolin-6-yl}urea]
8,890 nM,CNc1ccc2ncnc(Nc3cccc(Cl)c3)c2c1 [4-[(3-chlorophenyl)amino]-6-(methylamino)quinazoline]
